From the NIST ThermoML archive (doi:10.1016/j.jct.2011.08.017)
Values joined by “and” are separate entries in the source; they are usually repeats but may differ in a detail not shown here. Identical values can stand only once.

Columns and labels:
[1] = for Normal melting temperature: DTA
[2] = Molar enthalpy of transition or fusion; conditions: Crystal; DSC

Cn1ccnc1 [1-methylimidazole]
[1]
Conditions | vapor or sublimation pressure [kPa]
255.52 K, Crystal, Closed cell (Static) method | 0.00122
256.47 K, Metastable liquid, Closed cell (Static) method | 0.00184
256.5 K, Crystal, Closed cell (Static) method | 0.00139
257.48 K, Crystal, Closed cell (Static) method | 0.00157
257.48 K, Metastable liquid, Closed cell (Static) method | 0.00204
258.55 K, Metastable liquid, Closed cell (Static) method | 0.00226
258.57 K, Crystal, Closed cell (Static) method | 0.00177
259.5 K, Metastable liquid, Closed cell (Static) method | 0.00249
259.53 K, Crystal, Closed cell (Static) method | 0.00201
260.46 K, Metastable liquid, Closed cell (Static) method | 0.00273
260.48 K, Crystal, Closed cell (Static) method | 0.00225
261.42 K, Metastable liquid, Closed cell (Static) method | 0.00301
261.45 K, Crystal, Closed cell (Static) method | 0.00255
262.38 K, Metastable liquid, Closed cell (Static) method | 0.0033
262.41 K, Crystal, Closed cell (Static) method | 0.00277
263.36 K, Metastable liquid, Closed cell (Static) method | 0.00362
263.37 K, Crystal, Closed cell (Static) method | 0.00317
264.36 K, Crystal, Closed cell (Static) method | 0.00356
265.16 K, Metastable liquid, Closed cell (Static) method | 0.00425
265.35 K, Crystal, Closed cell (Static) method | 0.004
267.28 K, Metastable liquid, Closed cell (Static) method | 0.00515
269.27 K, Metastable liquid, Closed cell (Static) method | 0.00618
271.23 K, Closed cell (Static) method, Liquid | 0.00739
273.22 K, Closed cell (Static) method, Liquid | 0.00866
275.16 K, Closed cell (Static) method, Liquid | 0.01042
277.18 K, Closed cell (Static) method, Liquid | 0.01215
281.14 K, Closed cell (Static) method, Liquid | 0.01675
285.09 K, Closed cell (Static) method, Liquid | 0.02306
287.07 K, Closed cell (Static) method, Liquid | 0.02725
289.06 K, Closed cell (Static) method, Liquid | 0.03146
291.04 K, Closed cell (Static) method, Liquid | 0.03655
293.04 K, Closed cell (Static) method, Liquid | 0.04224
295.03 K, Closed cell (Static) method, Liquid | 0.049
297.03 K, Closed cell (Static) method, Liquid | 0.05608
298.98 K, Closed cell (Static) method, Liquid | 0.06498
300.98 K, Closed cell (Static) method, Liquid | 0.07451
302.96 K, Closed cell (Static) method, Liquid | 0.0852
304.98 K, Closed cell (Static) method, Liquid | 0.09635

Conditions | Normal melting temperature [°C]
[1], Crystal | -4.5

Conditions | Molar enthalpy of transition or fusion [kcal/mol]
[2] | 2.94

Cn1cnc(Cl)c1Cl [4,5-dichloro-1-methyl-1H-imidazole]
[1]
Conditions | vapor or sublimation pressure [kPa]
288.03 K, Crystal, Closed cell (Static) method | 0.00048
290.06 K, Crystal, Closed cell (Static) method | 0.0006
292.08 K, Crystal, Closed cell (Static) method | 0.00076
294.06 K, Crystal, Closed cell (Static) method | 0.00096
296.06 K, Crystal, Closed cell (Static) method | 0.0012
298.04 K, Crystal, Closed cell (Static) method | 0.00149
300.05 K, Crystal, Closed cell (Static) method | 0.00185
302.01 K, Crystal, Closed cell (Static) method | 0.00231
303.99 K, Crystal, Closed cell (Static) method | 0.00286
306.02 K, Crystal, Closed cell (Static) method | 0.00352
307.96 K, Crystal, Closed cell (Static) method | 0.0043
309.97 K, Crystal, Closed cell (Static) method | 0.00527
311.98 K, Crystal, Closed cell (Static) method | 0.00646
313.95 K, Crystal, Closed cell (Static) method | 0.00782
315.93 K, Crystal, Closed cell (Static) method | 0.00957
317.91 K, Crystal, Closed cell (Static) method | 0.01164
319.99 K, Crystal, Closed cell (Static) method | 0.01413
322 K, Crystal, Closed cell (Static) method | 0.01693
323.97 K, Crystal, Closed cell (Static) method | 0.02049
325.97 K, Crystal, Closed cell (Static) method | 0.02463
329.93 K, Metastable liquid, Closed cell (Static) method | 0.03434
331.93 K, Closed cell (Static) method, Liquid | 0.03936
333.9 K, Closed cell (Static) method, Liquid | 0.04506
335.89 K, Closed cell (Static) method, Liquid | 0.05151
337.88 K, Closed cell (Static) method, Liquid | 0.05882
339.87 K, Closed cell (Static) method, Liquid | 0.06701
341.86 K, Closed cell (Static) method, Liquid | 0.07636
343.84 K, Closed cell (Static) method, Liquid | 0.08631
345.82 K, Closed cell (Static) method, Liquid | 0.09809
347.8 K, Closed cell (Static) method, Liquid | 0.1106
349.78 K, Closed cell (Static) method, Liquid | 0.1248

Conditions | Normal melting temperature [°C]
[1], Crystal | 57.0

Conditions | Molar enthalpy of transition or fusion [kcal/mol]
[2] | 4.06

Cn1cnc(C#N)c1C#N [1-methyl-1H-imidazole-4,5-dicarbonitrile]
[1]
Conditions | vapor or sublimation pressure [kPa]
337.86 K, Crystal, Closed cell (Static) method | 0.00034
339.38 K, Crystal, Closed cell (Static) method | 0.00039
340.86 K, Crystal, Closed cell (Static) method | 0.00046
342.35 K, Crystal, Closed cell (Static) method | 0.00053
343.84 K, Crystal, Closed cell (Static) method | 0.00061
345.33 K, Crystal, Closed cell (Static) method | 0.0007
346.81 K, Crystal, Closed cell (Static) method | 0.00082
348.31 K, Crystal, Closed cell (Static) method | 0.00094
349.78 K, Crystal, Closed cell (Static) method | 0.00107
351.29 K, Crystal, Closed cell (Static) method | 0.00124
352.76 K, Crystal, Closed cell (Static) method | 0.00142
354.26 K, Crystal, Closed cell (Static) method | 0.00163
355.73 K, Crystal, Closed cell (Static) method | 0.00186
355.76 K, Metastable liquid, Closed cell (Static) method | 0.00198
357.23 K, Crystal, Closed cell (Static) method | 0.00212
357.23 K, Metastable liquid, Closed cell (Static) method | 0.00221
358.72 K, Crystal, Closed cell (Static) method | 0.00242
358.77 K, Metastable liquid, Closed cell (Static) method | 0.00249
360.71 K, Metastable liquid, Closed cell (Static) method | 0.00284
362.59 K, Closed cell (Static) method, Liquid | 0.0033
364.68 K, Closed cell (Static) method, Liquid | 0.00381
366.64 K, Closed cell (Static) method, Liquid | 0.0044
368.64 K, Closed cell (Static) method, Liquid | 0.00506
370.6 K, Closed cell (Static) method, Liquid | 0.00584
372.61 K, Closed cell (Static) method, Liquid | 0.0067
374.56 K, Closed cell (Static) method, Liquid | 0.00765
376.58 K, Closed cell (Static) method, Liquid | 0.00875
378.53 K, Closed cell (Static) method, Liquid | 0.01
380.52 K, Closed cell (Static) method, Liquid | 0.01138
382.49 K, Closed cell (Static) method, Liquid | 0.01298
384.5 K, Closed cell (Static) method, Liquid | 0.01474
386.44 K, Closed cell (Static) method, Liquid | 0.01668
388.45 K, Closed cell (Static) method, Liquid | 0.01889
390.43 K, Closed cell (Static) method, Liquid | 0.02143
392.4 K, Closed cell (Static) method, Liquid | 0.0241
394.36 K, Closed cell (Static) method, Liquid | 0.02715
396.35 K, Closed cell (Static) method, Liquid | 0.0304
398.31 K, Closed cell (Static) method, Liquid | 0.03419
400.31 K, Closed cell (Static) method, Liquid | 0.03815
402.27 K, Closed cell (Static) method, Liquid | 0.04273
404.27 K, Closed cell (Static) method, Liquid | 0.04766
406.23 K, Closed cell (Static) method, Liquid | 0.05325

Conditions | Normal melting temperature [°C]
[1], Crystal | 87.1

Conditions | Molar enthalpy of transition or fusion [kcal/mol]
[2] | 3.54

c1c[nH]cn1 [1H-imidazole]
[1]
Conditions | vapor or sublimation pressure [kPa]
303.99 K, Crystal, Closed cell (Static) method | 0.00058
306.97 K, Crystal, Closed cell (Static) method | 0.00079
309.99 K, Crystal, Closed cell (Static) method | 0.00108
312.98 K, Crystal, Closed cell (Static) method | 0.00145
315.94 K, Crystal, Closed cell (Static) method | 0.00195
318.92 K, Crystal, Closed cell (Static) method | 0.00263
321.97 K, Crystal, Closed cell (Static) method | 0.0035
324.96 K, Crystal, Closed cell (Static) method | 0.00469
327.95 K, Crystal, Closed cell (Static) method | 0.00621
330.92 K, Crystal, Closed cell (Static) method | 0.00819
333.9 K, Crystal, Closed cell (Static) method | 0.01063
333.9 K, Metastable liquid, Closed cell (Static) method | 0.01485
336.88 K, Crystal, Closed cell (Static) method | 0.01377
336.89 K, Metastable liquid, Closed cell (Static) method | 0.01859
339.86 K, Crystal, Closed cell (Static) method | 0.01782
339.86 K, Metastable liquid, Closed cell (Static) method | 0.02311
342.84 K, Crystal, Closed cell (Static) method | 0.02289
342.84 K, Metastable liquid, Closed cell (Static) method | 0.02848
345.81 K, Metastable liquid, Closed cell (Static) method | 0.03509
345.83 K, Crystal, Closed cell (Static) method | 0.02923
348.8 K, Crystal, Closed cell (Static) method | 0.03701
348.8 K, Metastable liquid, Closed cell (Static) method | 0.04297
351.75 K, Metastable liquid, Closed cell (Static) method | 0.05222
351.77 K, Crystal, Closed cell (Static) method | 0.04693
354.75 K, Crystal, Closed cell (Static) method | 0.0592
354.76 K, Metastable liquid, Closed cell (Static) method | 0.06354
357.72 K, Crystal, Closed cell (Static) method | 0.07394
357.72 K, Metastable liquid, Closed cell (Static) method | 0.07682
360.69 K, Metastable liquid, Closed cell (Static) method | 0.09288
363.67 K, Closed cell (Static) method, Liquid | 0.1112
366.66 K, Closed cell (Static) method, Liquid | 0.1336
369.63 K, Closed cell (Static) method, Liquid | 0.1596
372.6 K, Closed cell (Static) method, Liquid | 0.1912
375.56 K, Closed cell (Static) method, Liquid | 0.2249
378.51 K, Closed cell (Static) method, Liquid | 0.2655
381.51 K, Closed cell (Static) method, Liquid | 0.3134
384.48 K, Closed cell (Static) method, Liquid | 0.3688

Conditions | Normal melting temperature [°C]
[1], Crystal | 86.2

Conditions | Molar enthalpy of transition or fusion [kcal/mol]
[2] | 3.13

Clc1nc[nH]c1Cl [4,5-dichloroimidazole]
[1], Crystal, Closed cell (Static) method
Conditions | vapor or sublimation pressure
337.91 K | 0.00048 kPa
339.87 K | 0.00059 kPa
341.87 K | 0.00072 kPa
341.88 K | 0.00071 kPa
343.83 K | 0.00086 kPa
345.84 K | 0.00104 kPa
345.85 K | 0.00104 kPa
347.81 K | 0.00125 kPa
349.81 K | 0.00148 kPa and 0.00151 kPa
351.78 K | 0.0018 kPa
355.75 K | 0.00258 kPa
357.73 K | 0.00306 kPa
359.72 K | 0.00366 kPa
361.71 K | 0.00434 kPa
363.69 K | 0.00513 kPa
365.67 K | 0.00607 kPa
367.66 K | 0.00722 kPa
369.64 K | 0.00841 kPa
371.62 K | 0.00998 kPa
373.6 K | 0.01172 kPa
375.6 K | 0.01368 kPa
377.56 K | 0.01597 kPa
379.54 K | 0.0184 kPa
381.52 K | 0.02175 kPa
383.45 K | 0.02487 kPa
385.49 K | 0.02923 kPa
387.38 K | 0.03334 kPa
389.45 K | 0.03896 kPa
391.33 K | 0.04433 kPa
393.4 K | 0.05168 kPa
395.37 K | 0.0589 kPa

Conditions | Normal melting temperature [°C]
[1], Crystal | 183.6

Conditions | Molar enthalpy of transition or fusion [kcal/mol]
[2] | 4.21

N#Cc1nc[nH]c1C#N [4,5-dicyanoimidazole]
[1], Crystal, Calculated from knudsen effusion weight loss
Conditions | vapor or sublimation pressure
383.16 K | 0.000153 kPa and 0.00015 kPa
385.16 K | 0.000182 kPa and 0.000184 kPa and 0.000183 kPa
387.12 K | 0.000223 kPa and 0.000222 kPa
389.16 K | 0.000267 kPa and 0.000264 kPa
391.16 K | 0.000325 kPa
393.12 K | 0.000386 kPa and 0.000383 kPa and 0.000389 kPa
395.16 K | 0.000462 kPa and 0.000464 kPa
397.16 K | 0.000556 kPa
399.14 K | 0.000668 kPa and 0.000664 kPa and 0.000666 kPa
401.16 K | 0.000791 kPa and 0.000782 kPa and 0.000796 kPa
403.15 K | 0.000954 kPa and 0.000931 kPa and 0.000932 kPa

Conditions | Normal melting temperature [°C]
[1], Crystal | 176

Conditions | Molar enthalpy of transition or fusion [kcal/mol]
[2] | 5.4
